The source of these data is patent publication US20230355622A1, “METHODS OF CHEMOVACCINATION AGAINST PLASMODIUM INFECTIONS” (Merck Sharp & Dohme LLC, priority 2020, published 2023).

As a reminder, the EC50 is the concentration needed to bring the measured effect to its halfway point.

The test system of the first assay is parasite. Description: Parasite LDH growth assay (Parasite Assay), antiparasite potency. In kind it is cell-based. The following applies: 72 h, parasite LDH growth assay, ring stage parasites, 72 hours incubation at 37° C.; read-out: EC50. As for the experimental part: Assessing Antiparasite Potency in a Parasite LDH Growth Assay (Parasite Assay)
The parasite stock was maintained at 4% haematocrit in RPMI-Hepes media buffered with sodium bicarbonate and supplemented with 5% heat inactivated human serum and 0.5% albumax.
On the day of assay set up, a blood smear of the parasite culture was Giemsa stained and counted. The parasitemia was adjusted to 0.7% rings and the haematocrit was diluted to 2% in RPMI-Hepes media buffered with sodium bicarbonate and supplemented with 5% heat inactivated human serum and 0.5% albumax. 30 ul of diluted parasites are then added into 10 ul of media+compound in pre-prepared Greiner TC assay plates. Parasite assay plates were placed in gassed humidified boxes in single layer and allowed to incubate at 37° C. for 72 hours. After 72 hours growth, assay plates are sealed with parafilm and frozen flat, in single file at −80° C. overnight. On the following day, assay plates are allowed to thaw at room temperature for 4 hours to which an LDH assay is performed to measure parasite growth.
Regarding `CCC1(CC)CC(=O)N([C@H]2c3cc(C(=O)N[C@H]4CC(C)(C)Oc5ccccc54)ccc3OC[C@@H]2OC)C(=N)N1` [Example 68A, (3R,4S)-4-(4,4-diethyl-2-imino-6-oxotetrahydropyrimidin-1(2H)-yl)-N-((S)-2,2-dimethylchroman-4-yl)-3-methoxychromane-6-carboxamide], the EC50 was determined as 1000 pM.

Turning to `CCC1(CC)CC(=O)N([C@@H]2Cc3ccc(C(=O)N[C@@H]4c5ccccc5C[C@H]4O)cc32)C(=N)N1` [Example 83, (8R)-8-(4,4-diethyl-2-imino-6-oxo-hexahydropyrimidin-1-yl)-N-[(1R,2R)-2-hydroxyindan-1-yl]bicyclo[4.2.0]octa-1(6),2,4-triene-3-carboxamide], the EC50 amounted to 20000 pM. For the compound `CC1(C)CC(=O)N([C@@H]2CCc3ccc(C(=O)N[C@H]4CC(C)(C)Oc5ccccc54)cc32)C(=N)N1` [Example 84, (3R)-N-[(4S)-2,2-dimethylchroman-4-yl]-3-(2-imino-4,4-dimethyl-6-oxo-hexahydropyrimidin-1-yl)indane-5-carboxamide], the EC50 is 900 pM. Regarding `CC1(C)CC(=O)N(C2c3cc(C(=O)N[C@@H]4c5ccccc5C[C@H]4O)ccc3CC2(C)C)C(=N)N1` (stereo partly drawn) [Example 87, N-[(1R,2R)-2-hydroxyindan-1-yl]-3-(2-imino-4,4-dimethyl-6-oxo-hexahydropyrimidin-1-yl)-2,2-dimethyl-indane-5-carboxamide], the EC50 amounted to 105000 pM. Regarding `C[C@@H]1C[C@@H](N2C(=N)NC(C)(C)CC2=O)c2cc(C(=O)N[C@@H]3c4ccccc4OC[C@@]3(C)O)ccc21` [Example 104, (1R,3R)-N-[(3S,4R)-3-hydroxy-3-methyl-chroman-4-yl]-3-(2-imino-4,4-dimethyl-6-oxo-hexahydropyrimidin-1-yl)-1-methyl-indane-5-carboxamide], the EC50 is 5000 pM. The same measure, in the same setting: for `COC1COc2ccc(C(=O)N[C@@H]3c4ccccc4C[C@H]3O)cc2C1N1C(=N)NC(C)(C)CC1=O` (stereo partly drawn) [Example 110, N-[(1R,2R)-2-hydroxyindan-1-yl]-4-(2-imino-4,4-dimethyl-6-oxo-hexahydropyrimidin-1-yl)-3-methoxy-chromane-6-carboxamide] the value was 60000 pM; for `CCC1(CC)CC(=O)N([C@@H]2CCOc3ccc(C(=O)N[C@@H](C)c4ccccc4OC)cc32)C(=N)N1` [Example 111, (4R)-4-(4,4-diethyl-2-imino-6-oxo-hexahydropyrimidin-1-yl)-N-[(1S)-1-(2-methoxyphenyl)ethyl]chromane-6-carboxamide], 90000 pM.

Turning to `CCC1(CC)CC(=O)N([C@H]2c3cc(C(=O)N[C@@H]4c5ccccc5C[C@H]4O)ccc3OC[C@H]2C)C(=N)N1` [Example 118, (3S,4R)-4-(4,4-diethyl-2-imino-6-oxo-hexahydropyrimidin-1-yl)-N-[(1R,2R)-2-hydroxyindan-1-yl]-3-methyl-chromane-6-carboxamide], the EC50 was 900 pM. As for `CCC1(CC)CC(=O)N([C@H]2c3cc(C(=O)N[C@@H]4c5ccccc5C[C@H]4O)ccc3OC[C@@H]2C)C(=N)N1` [Example 120, (3R,4R)-4-(4,4-diethyl-2-imino-6-oxo-hexahydropyrimidin-1-yl)-N-[(1R,2R)-2-hydroxyindan-1-yl]-3-methyl-chromane-6-carboxamide], the EC50 amounted to 800 pM. With `CC[C@]1(C)CC(=O)N([C@@H]2CCc3ccc(C(=O)N[C@@H]4c5ccccc5OC(C)(C)[C@H]4O)cc32)C(=N)N1` [Example 121, (3R)-3-[(4R)-4-ethyl-2-imino-4-methyl-6-oxo-hexahydropyrimidin-1-yl]-N-[(3S,4R)-3-hydroxy-2,2-dimethyl-chroman-4-yl]indane-5-carboxamide], the EC50 was 600 pM. On to `CC[C@]1(C)CC(=O)N([C@@H]2C[C@@H](C)c3ccc(C(=O)N[C@@H]4c5ccccc5OC[C@@]4(C)O)cc32)C(=N)N1` [Example 131, (1R,3R)-3-[(4R)-4-ethyl-2-imino-4-methyl-6-oxo-hexahydropyrimidin-1-yl]-N-[(3S,4R)-3-hydroxy-3-methyl-chroman-4-yl]-1-methyl-indane-5-carboxamide], for which the EC50 came out at 2000 pM.

For the compound `C[C@@H]1Cc2ccc(C(=O)N[C@@H]3c4ccccc4OC(C)(C)[C@H]3O)cc2[C@@H]1N1C(=N)NC(C)(C)CC1=O` [Example 135, (2R,3R)-N-[(3S,4R)-3-hydroxy-2,2-dimethyl-chroman-4-yl]-3-(2-imino-4,4-dimethyl-6-oxo-hexahydropyrimidin-1-yl)-2-methyl-indane-5-carboxamide], the EC50 is 900 pM.

In the case of `C[C@@H]1C[C@@H](N2C(=N)NC(C)(C)CC2=O)c2cc(C(=O)N[C@@H]3c4ccccc4OC(C)(C)[C@H]3O)ccc21` [Example 138, (1R,3R)-N-[(3S,4R)-3-hydroxy-2,2-dimethyl-chroman-4-yl]-3-(2-imino-4,4-dimethyl-6-oxo-hexahydropyrimidin-1-yl)-1-methyl-indane-5-carboxamide], the EC50 was found to be 900 pM. Consider `CCC1(CC)CC(=O)N([C@@H]2CCOc3ccc(C(=O)N[C@@H]4c5ccccc5C5(CC5)[C@H]4O)cc32)C(=N)N1` [Example 154, (4R)-4-(4,4-diethyl-2-imino-6-oxo-hexahydropyrimidin-1-yl)-N-[(1′R,2′R)-2′-hydroxyspiro[cyclopropane-1,3′-indane]-1′-yl]chromane-6-carboxamide], for which the concentration for a half-maximal effect (EC50) came to 700 pM.

`CCC1(CC)CC(=O)N([C@@H]2C[C@H](OC)c3ccc(C(=O)N[C@@H]4c5ccccc5C[C@@]4(C)O)cc32)C(=N)N1` [Example 158, (1S,3R)-3-(4,4-diethyl-2-imino-6-oxo-hexahydropyrimidin-1-yl)-N-[(1R,2R)-2-hydroxy-2-methyl-indan-1-yl]-1-methoxy-indane-5-carboxamide]: the EC50 was found to be 900 pM. The same measure, in the same setting: for `CCC1(CC)CC(=O)N([C@@H]2CCc3ccc(C(=O)N[C@@H]4c5ccccc5OC(C)(C)[C@H]4O)cc32)C(=N)N1` [Example 159, (3R)-3-(4,4-diethyl-2-imino-6-oxo-hexahydropyrimidin-1-yl)-N-[(3S,4R)-3-hydroxy-2,2-dimethyl-chroman-4-yl]indane-5-carboxamide] the value was 500 pM; for `CCC1(CC)CC(=O)N(C2CCCc3ccc(C(=O)N[C@@H]4c5ccccc5OC[C@@]4(C)O)cc32)C(=N)N1` (stereo partly drawn) [Example 161, 8-(4,4-diethyl-2-imino-6-oxotetrahydropyrimidin-1(2H)-yl)-N-((3S,4R)-3-hydroxy-3-methylchroman-4-yl)-5,6,7,8-tetrahydronaphthalene-2-carboxamide], 800 pM; for `CC[C@]1(C)CC(=O)N([C@H]2c3cc(C(=O)N[C@@H]4c5ccccc5OC(C)(C)[C@H]4O)ccc3C[C@H]2C)C(=N)N1` [Example 168, (2R,3R)-3-[(4R)-4-ethyl-2-imino-4-methyl-6-oxo-hexahydropyrimidin-1-yl]-N-[(3S,4R)-3-hydroxy-2,2-dimethyl-chroman-4-yl]-2-methyl-indane-5-carboxamide], 400 pM. Still for that read-out and setting: for `CC[C@]1(C)CC(=O)N([C@H]2c3cc(C(=O)N[C@@H]4c5ccccc5OC(C)(C)[C@H]4O)ccc3C[C@@H]2C)C(=N)N1` [Example 169, (2S,3R)-3-[(4R)-4-ethyl-2-imino-4-methyl-6-oxo-hexahydropyrimidin-1-yl]-N-[(3S,4R)-3-hydroxy-2,2-dimethyl-chroman-4-yl]-2-methyl-indane-5-carboxamide] the value was 300 pM; for `CC[C@]1(C)CC(=O)N([C@@H]2C[C@@H](C)c3ccc(C(=O)N[C@@H]4c5ccccc5OC(C)(C)[C@H]4O)cc32)C(=N)N1` [Example 171, (1R,3R)-3-[(4R)-4-ethyl-2-imino-4-methyl-6-oxo-hexahydropyrimidin-1-yl]-N-[(3S,4R)-3-hydroxy-2,2-dimethyl-chroman-4-yl]-1-methyl-indane-5-carboxamide], 700 pM.

Still in this assay, the particulars now being: parasite LDH growth assay, ring stage parasites, 72 hours incubation at 37° C.; read-out: EC50.
With `CCC1(CC)CC(=O)N([C@H]2c3cc(C(=O)N[C@@H]4c5ccccc5OC(C)(C)[C@H]4O)ccc3OCC2OC)C(=N)N1` (stereo partly drawn) [Example 67B, (3R,4S)-4-(4,4-diethyl-2-imino-6-oxotetrahydropyrimidin-1(2H)-yl)-N-((3S,4R)-3-hydroxy-2,2-dimethylchroman-4-yl)-3-methoxychromane-6-carboxamide], the EC50 was found to be 800 pM.

For the compound `CCC1(CC)CC(=O)N([C@H]2c3cc(C(=O)N[C@@H]4c5ccccc5C[C@H]4O)ccc3OCC2OC)C(=N)N1` (stereo partly drawn) [Example 72A, (3R,4S)-4-(4,4-diethyl-2-imino-6-oxotetrahydropyrimidin-1(2H)-yl)-N-((1R,2R)-2-hydroxy-2,3-dihydro-1H-inden-1-yl)-3-methoxychromane-6-carboxamide], the EC50 stood at 500 pM. The same measure, in the same setting: for `CCC1(CC)CC(=O)N([C@H]2c3cc(C(=O)N[C@@H]4c5ccccc5OC(C)(C)[C@H]4O)ccc3OC2(C)COC)C(=N)N1` (stereo partly drawn) [Example 73A, (2S,3S)-3-(4,4-diethyl-2-imino-6-oxotetrahydropyrimidin-1(2H)-yl)-N-((3S,4R)-3-hydroxy-2,2-dimethylchroman-4-yl)-2-(methoxymethyl)-2-methyl-2,3-dihydrobenzofuran-5-carboxamide] the value was 300 pM; for `CCC1(CC)CC(=O)N([C@H]2c3cc(C(=O)N[C@H]4CC(C)(C)Oc5ccccc54)ccc3OC2(C)COC)C(=N)N1` (stereo partly drawn) [Example 74A, (2S,3S)-3-(4,4-diethyl-2-imino-6-oxotetrahydropyrimidin-1(2H)-yl)-N-((S)-2,2-dimethylchroman-4-yl)-2-(methoxymethyl)-2-methyl-2,3-dihydrobenzofuran-5-carboxamide], 300 pM.
